Data published in ChEMBL document CHEMBL4000252, “Discovery of N-(2-aminoethyl)-N-benzyloxyphenyl benzamides: New potent Trypanosoma brucei inhibitors” (Bioorg Med Chem, 2017).

Experiments:
[1] = system: Trypanosoma brucei brucei; experiment: Antiparasitic activity against Trypanosoma brucei brucei BF427 assessed as growth inhibition after 48 hrs by Alamar blue assay; assay type: functional; settings: BF427, 48 h
HepG2 = experiment: Cytotoxicity against human HepG2 cells assessed as growth inhibition after 48 hrs by Alamar blue assay; assay type: cell-based; settings: hepg2, 48 h
[2] = Cytotoxicity against human CRL8155 cells assessed as growth inhibition after 48 hrs by Alamar blue assay; assay type: cell-based; settings: crl8155, 48 h
Cytochrome P450 3A4 = Cytochrome P450 3A4 (Homo sapiens, UniProt P08684); experiment: Inhibition of human CYP3A4; assay type: ADME
Cytochrome P450 3A4, sequence (P08684 whole entry): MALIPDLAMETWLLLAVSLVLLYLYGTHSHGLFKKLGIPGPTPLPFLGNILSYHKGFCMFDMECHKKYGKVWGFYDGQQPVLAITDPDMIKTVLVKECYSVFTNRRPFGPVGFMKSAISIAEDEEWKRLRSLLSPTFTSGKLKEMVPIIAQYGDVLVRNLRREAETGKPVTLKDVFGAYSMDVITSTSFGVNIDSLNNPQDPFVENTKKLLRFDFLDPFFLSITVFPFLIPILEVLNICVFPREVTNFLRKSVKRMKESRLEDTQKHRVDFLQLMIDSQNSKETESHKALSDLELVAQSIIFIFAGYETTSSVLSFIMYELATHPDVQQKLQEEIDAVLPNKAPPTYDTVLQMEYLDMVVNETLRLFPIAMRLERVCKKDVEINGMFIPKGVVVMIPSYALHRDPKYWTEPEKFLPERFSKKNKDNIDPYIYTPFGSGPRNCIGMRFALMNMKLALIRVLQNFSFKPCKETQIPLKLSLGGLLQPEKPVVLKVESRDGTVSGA

Liver [3] = experiment: Half life in human liver microsomes at 1.5 uM by LC-MS analysis; assay type: ADME, microsome
[4] = system: Trypanosoma brucei rhodesiense; experiment: Antiparasitic activity against Trypanosoma brucei rhodesiense STIB900 infected in Swiss-Webster mouse assessed as cure rate at 50 mg/kg, bid administered via oral gavage from day 2 to 5 post infection measured after 60 days by microscopic method relative to control; assay type: functional
[5] = AUC (0 to 8 hrs) in mouse at 50 mg/kg, po by LC-MS analysis; assay type: ADME, organism-based; parameters: dose 50 mg/kg, time < 8 hr, route oral; settings: in vivo
[6] = Ratio of drug level in brain to plasma in mouse at 5 mg/kg, ip after 1 hr by LC-MS analysis; assay type: ADME, organism-based
[7] = Cmax in mouse at 50 mg/kg, po by LC-MS analysis; assay type: ADME, organism-based; parameters: dose 50 mg/kg, route oral; settings: in vivo
Liver [8] = experiment: Half life in mouse liver microsomes at 1.5 uM by LC-MS analysis; assay type: ADME, microsome

| Structure (SMILES) | EC50 [1] | CC50 [2] | also measured |
| --- | --- | --- | --- |
| O=C(c1ccc(Cl)cc1Cl)N(Cc1cnc[nH]1)c1ccc(Cl)cc1 | > 10000 nM | – | – |
| O=C(c1ccc(Cl)cc1Cl)N(Cc1cccs1)c1ccc(Cl)cc1 | > 10000 nM | – | – |
| O=C(c1ccc(Cl)cc1Cl)N(CCN1CCOCC1)c1ccc(Cl)cc1 | > 10000 nM | – | – |
| NCCN(C(=O)c1ccc(Cl)cc1Cl)c1cccc(Oc2ccc(Cl)cc2)c1 | 2130 nM | – | – |
| Cc1cc(C)cc(COc2ccc(N(CCN)C(=O)c3ccc(F)cc3C(F)(F)F)cc2)c1 | 5 nM | 2240 nM | CC50 (HepG2): 4530 nM |
| CCc1ccc(COc2ccc(N(CCN)C(=O)c3ccc(Cl)cc3Cl)cc2)cc1 | 15 nM | 2590 nM | CC50 (HepG2): 5600 nM |
| O=C(c1ccc(Cl)cc1Cl)N(c1ccc(Cl)cc1)c1cccnc1 | > 10000 nM | – | – |
| CC(C)c1ccc(COc2ccc(N(CCN)C(=O)c3ccccc3Br)cc2)cc1 | 1 nM | 1910 nM | – |
| CC(C)c1ccc(COc2ccc(N(CCN)C(=O)c3ccc(F)cc3C(F)(F)F)cc2)cc1.Cl | 2 nM | 2830 nM | t1/2 (Liver [3]): 0.867 h; CC50 (HepG2): 3660 nM; Activity [4]: 33%; AUC(0-t) at 8 h [5]: 11.1 µM·h; BPR [6]: 0.22; Cmax [7]: 1780 nM |
| NCCN(C(=O)c1ccc(Cl)cc1Cl)c1ccc(-c2ccccc2)cc1 | 1830 nM | – | – |
| O=C(c1ccc(Cl)cc1Cl)N(c1ccc(Cl)cc1)C1CCCNC1 (stereo not given) | > 10000 nM | – | – |
| CC(C)(C)c1ccc(COc2ccc(N(CCN)C(=O)c3ccc(Cl)cc3Cl)cc2)cc1 | 5 nM | 2120 nM | CC50 (HepG2): 3830 nM |
| CC(CN)N(C(=O)c1ccc(Cl)cc1Cl)c1ccc(Cl)cc1 (stereo not given) | 3560 nM | – | – |
| NCCN(C(=O)c1ccc(Cl)cc1Cl)c1cccc(Cl)c1 | 3050 nM | – | – |
| NCCN(C(=O)c1ccc(Cl)cc1Cl)c1ccc(Cl)cc1Cl | 510 nM | – | – |
| O=C(c1ccc(Cl)cc1Cl)N(c1ccc(Cl)cc1)C1CCNC1 (stereo not given) | 4470 nM | – | – |
| CC(C)c1ccc(COc2ccc(N(CCN)C(=O)c3ccccc3C(F)(F)F)cc2)cc1 | 3 nM | 2220 nM | CC50 (HepG2): 3990 nM |
| O=C(c1ccc(Cl)cc1Cl)N(Cc1ncc[nH]1)c1ccc(Cl)cc1 | > 10000 nM | – | – |
| NCCN(C(=O)c1ccc(Cl)cc1Cl)c1ccc(F)c(Cl)c1 | 2720 nM | – | – |
| Cl.NCCN(C(=O)c1ccc(Cl)cc1Cl)c1ccc(F)cc1 | – | 30000 nM | CC50 (HepG2): 40000 nM; IC50 (Cytochrome P450 3A4): 74 nM; t1/2 (Liver [8]): > 1 h |
| Cc1cc(C)cc(COc2ccc(N(CCN)C(=O)c3cccnc3C(F)(F)F)cc2)c1 | 3 nM | 4740 nM | CC50 (HepG2): 6460 nM |
| NCCN(C(=O)c1ccc(Cl)cc1Cl)c1ccc(Cl)c(Cl)c1 | 1680 nM | – | – |
| Cc1cc(C)cc(COc2ccc(N(CCN)C(=O)c3ccccc3C(F)(F)F)cc2)c1.Cl | 10 nM | 2940 nM | t1/2 (Liver [3]): > 1 h; CC50 (HepG2): 3940 nM; Activity [4]: 33%; AUC(0-t) at 8 h [5]: 6.51 µM·h; BPR [6]: 0.96; Cmax [7]: 1010 nM |
| N#CCN(C(=O)c1ccc(Cl)cc1Cl)c1ccc(Cl)cc1 | > 10000 nM | – | – |
| NCCN(C(=O)c1c(F)c(F)c(F)c(F)c1F)c1ccc(Cl)cc1 | 540 nM | – | – |
| O=C(c1ccc(Cl)cc1Cl)N(Cc1ccco1)c1ccc(Cl)cc1 | > 10000 nM | – | – |
| CC(C)c1ccc(COc2ccc(N(CCN)C(=O)c3ccccc3[N+](=O)[O-])cc2)cc1 | 1 nM | 3030 nM | – |
| NCCN(C(=O)c1ccc(Cl)cc1Cl)c1ccc(OCc2cccc(Cl)c2)cc1 | 43 nM | 2380 nM | CC50 (HepG2): 3780 nM |
| NCCN(C(=O)c1cccnc1C(F)(F)F)c1ccc(OCc2ccc(Cl)cc2)cc1 | 3 nM | 8010 nM | CC50 (HepG2): 10200 nM |

Now from value to molecule, other results behind:

| EC50 [1] | Structure (SMILES) | CC50 [2] | also measured |
| --- | --- | --- | --- |
| 1200 nM | NCCN(C(=O)c1cccc(Cl)c1)c1ccc(Cl)cc1 | – | – |
| 590 nM | NCCN(C(=O)c1cccnc1C(F)(F)F)c1ccc(Cl)cc1 | – | – |
| 780 nM | NCCN(C(=O)c1c(Cl)cccc1Cl)c1ccc(Cl)cc1 | > 50000 nM | CC50 (HepG2): > 50000 nM |
| 4010 nM | NCCN(C(=O)c1ccc(F)cc1)c1ccc(Cl)cc1 | – | – |
| 3890 nM | CC(C)c1ccc(N(CCN)C(=O)c2ccc(Cl)cc2Cl)cc1 | – | – |
| 310 nM | NCCN(C(=O)c1ccc(Cl)cc1Cl)c1ccc(Cl)cc1 | 12500 nM | CC50 (HepG2): 14200 nM; IC50 (Cytochrome P450 3A4): 70 nM |
| 520 nM | Cc1ccccc1C(=O)N(CCN)c1ccc(Cl)cc1 | – | – |
| > 10000 nM | CN(C)CCN(C(=O)c1ccc(Cl)cc1Cl)c1ccc(Cl)cc1 | – | – |
| 1200 nM | NCCN(C(=O)c1cc([N+](=O)[O-])ccc1Cl)c1ccc(Cl)cc1 | – | – |
| 970 nM | Cc1ccc(C(=O)N(CCN)c2ccc(Cl)cc2)c(C)c1 | – | – |
| > 10000 nM | CC(=O)NCCN(C(=O)c1ccc(Cl)cc1Cl)c1ccc(Cl)cc1 | – | – |
| 4030 nM | NCCN(C(=O)c1cccc(F)c1)c1ccc(Cl)cc1 | – | – |
| > 10000 nM | O=C(c1ccc(Cl)cc1Cl)N(CCO)c1ccc(Cl)cc1 | – | – |
| > 10000 nM | COc1ccc(C(=O)N(CCN)c2ccc(Cl)cc2)cc1 | – | – |
| > 10000 nM | NCCN(C(=O)c1ccc(Cl)cc1Cl)c1ccc([N+](=O)[O-])cc1 | – | – |
| 4520 nM | COc1cc(N(CCN)C(=O)c2ccc(Cl)cc2Cl)ccc1Cl | – | – |
| 310 nM | NCCN(C(=O)c1cccc(Cl)c1Cl)c1ccc(Cl)cc1 | – | – |
| 7000 nM | Cc1ccc(C(=O)N(CCN)c2ccc(Cl)cc2)cc1 | – | – |
| 1240 nM | NCCN(C(=O)c1ccc(F)cc1F)c1ccc(Cl)cc1 | – | – |
| 2510 nM | COc1ccccc1C(=O)N(CCN)c1ccc(Cl)cc1 | – | – |
| 330 nM | NCCN(C(=O)c1ccccc1C(F)(F)F)c1ccc(Cl)cc1 | – | – |

| EC50 [1] | Structure (SMILES) | CC50 [2] | also measured |
| --- | --- | --- | --- |
| 2900 nM | NCCCN(C(=O)c1ccc(Cl)cc1Cl)c1ccc(Cl)cc1 | – | – |
| 2900 nM | NCCN(C(=O)c1ccc(Cl)c([N+](=O)[O-])c1)c1ccc(Cl)cc1 | – | – |
| 330 nM | NCCN(C(=O)c1ccc(Cl)cc1Cl)c1ccc(Br)cc1 | 11500 nM | CC50 (HepG2): 11000 nM |
| 180 nM | NCCN(C(=O)c1ccc(F)cc1C(F)(F)F)c1ccc(Cl)cc1 | 42300 nM | CC50 (HepG2): 37700 nM |
| 600 nM | NCCN(C(=O)c1cc(Cl)ccc1Cl)c1ccc(Cl)cc1 | – | – |
| > 10000 nM | NCCN(C(=O)c1ccc(Cl)cc1Cl)c1ccc(N)cc1 | 11000 nM | – |
| 230 nM | NCCN(C(=O)c1c(Cl)cc(Cl)cc1Cl)c1ccc(Cl)cc1 | 8500 nM | CC50 (HepG2): 21500 nM |
| 280 nM | NCCN(C(=O)c1ccc(Cl)cc1Cl)c1ccc(Oc2cccc(Cl)c2)cc1 | – | – |
| 1520 nM | Cc1ccc(N(CCN)C(=O)c2ccc(Cl)cc2Cl)cc1 | 24900 nM | – |
| 3600 nM | NCCN(C(=O)c1ccc(Cl)cc1Cl)c1ccc(Oc2ccccc2Cl)cc1 | – | – |
| 30 nM | NCCN(C(=O)c1cccnc1Cl)c1ccc(OCc2ccc(Cl)cc2)cc1 | 11500 nM | CC50 (HepG2): 15200 nM |
| 3120 nM | NCCN(C(=O)c1ccc(Cl)cc1)c1ccc(Cl)cc1 | – | – |
| > 10000 nM | NC(=O)CCN(C(=O)c1ccc(Cl)cc1Cl)c1ccc(Cl)cc1 | – | – |
| 1050 nM | CC(N)CN(C(=O)c1ccc(Cl)cc1Cl)c1ccc(Cl)cc1 (stereo not given) | – | – |
| 4820 nM | COc1ccc(C(=O)N(CCN)c2ccc(Cl)cc2)c(OC)c1 | – | – |
| 170 nM | NCCN(C(=O)c1ccc(Cl)cc1Cl)c1ccc(Oc2ccc(Cl)cc2)cc1 | – | – |
| 13000 nM | NCCN(C(=O)c1ccccc1)c1ccc(Cl)cc1 | – | – |
| 1080 nM | NCCN(C(=O)c1cc(Cl)cc(Cl)c1)c1ccc(Cl)cc1 | – | – |
| 1650 nM | CNCCN(C(=O)c1ccc(Cl)cc1Cl)c1ccc(Cl)cc1 | – | – |
| 440 nM | NCCN(C(=O)c1ccccc1Cl)c1ccc(Cl)cc1 | > 50000 nM | CC50 (HepG2): > 50000 nM |
